Three molecules from patent US12295936B2, “Immunomodulating urea azalides” (Zoetis Services LLC, priority 2020, dated 2025) can be followed below.

Converted amounts (≈) assume the structure as drawn. “Also recorded” adds a separate entry of the source. Read-outs that look alike come from different tables or passages of the source.

Series [1] relates to E. coli and Salmonella isolates. In words: Ames mutagenicity test. It is filed as cell-based. Particulars: 1-5000 μg/plate, plate incorporation method. The procedure:
In an Ames mutagenicity test, Example H-91 (1-5000 μg/plate; using the plate incorporation method and a standard panel of bacterial (E. coli and Salmonella isolates) was negative (non-mutagenic).

In a further series the test system is IL-6. In words: LPS-stimulated whole bovine blood assay, MSD cytokine detection. It is filed as cell-based. Particulars: for IC50: Bos taurus, LPS-stimulated bovine whole blood, read-out: IL-6 (IC50 μM). The text has this:
In order to correlate RNA sequencing data to cytokine changes the whole blood assay was utilized. […] The enhancement result represents an overall stimulation of cytokine levels due to cellular stress or potential toxicity with increasing concentrations of the compound, representing a typical bell shape response curve for immunomodulatory activity.

The next series relates to P. multocida 46572. In words: In vivo mouse lung infection challenge model (murine efficacy). The arrangement: species or system CD-1 female mice. The following applies: for Mouse Murine Percent Survival: 20 mg/kg subcutaneous, harmonized against the comparative vehicle survival rate; for clinical efficacy in murine P. multocida infection: airway tissues collected longitudinally for transcriptomic analysis. Summed up: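 CD-1 female mice challenged intranasally with P. multocida 46572 at mid-log phase (target 5×10^2 CFU/mouse). Compounds given subcutaneously at 20 mg/kg in buffered (~pH 5.4) propylene glycol/monothioglycerol/water. Mortality observed Days 1–10, analysed by generalized mixed model; survival harmonized against vehicle survival rate.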

In series [2] the test system is bovine respiratory disease (BRD). The experiment in a line: Natural bovine respiratory disease (field) studies. Particulars: for Percent failure (treatment failure): 14-day observation, beef calves at moderate risk for BRD, saline 43%. Format: in vivo, cattle.
The test system of the next series is IL-36RA. In words: IL-36RA change during natural infection bovine studies. It is filed as in vivo, cattle. The following applies: H-91 0.5 mg/kg, H-11 0.1 mg/kg; for IL-36RA concentration relative to the baseline concentration after the elevation: after roughly 8 hours; for increase in IL-36RA compared to baseline: within 1 hour, FIG. 5. As to the method: Intensive sample collection was conducted over a 96-hour period in a subset of cattle treated with Example H-91 (0.5 mg/kg) or H-11 (0.1 mg/kg) in the natural bovine infection studies. […] The compounds of the invention have shown an up-regulation of IL-36RA, which then binds to IL-36R limiting the pro-inflammatory response of IL-36. In addition, the IL-8 levels from one of the natural infection studies with Example H-91, increased 270% over the course of the study for control animals. In contrast, the IL-8 levels in animals dosed with Example H-91 decreased by about 15%.

Series [3] relates to M. haemolytica (OSU-012103-BHI). The following applies: for Back Transform LS % Lung with Lesions / Range % Lung with Lesions: sc.
The next series deals with P. multocida. The experiment in a line: In-vitro MIC model (CLSI broth micro-dilution). Particulars: Pasteurella multocida.
In the next series the test system is H. somni. The experiment in a line: In-vitro MIC model (CLSI broth micro-dilution).
In a further series the test system is CD163. In words: CD163 expression by flow cytometry, blood of treated/challenged cattle. Particulars: blood macrophages.
For series [4], the system named is BRD pathogens, M. haemolytica and P. multocida. In words: MIC screening panel of BRD pathogens (antibacterial / non-antibacterial).
Series [5] in a line: pH dependent aqueous solubility. It is filed as physicochemical. As to the method:
In an aqueous solution, Example H-11 exists as an equilibrated mixture of two lactone isomers as shown above. The ratio is approximately 9:1 lactone A:B. The rate of equilibration depends on pH and temperature, with neutral pH giving faster equilibration, pH˜5-6 giving much slower equilibration, and higher temperatures resulting in faster equilibration. Equilibration occurs in under 1-hour at pH>6 and temperatures >60° C. H-11 isomerization is a 6 exo-Trig cyclization and is a favored reaction by Baldwin's Rules. The dominant isomer, lactone-A, is a 15-membered macrocyclic lactone, while the minor isomer, lactone-B, is a 13-membered macrocyclic lactone. […] Due to the pH dependent solubility of H-11, and other compounds of the invention, dissolution of an organic acid (e.g., citric acid) into water prior to adding the active agent (e.g., H-11) may be necessary to ensure complete dissolution, particularly for higher concentration solutions, thereby providing a solution with enough buffering capacity for dissolution.

The mark [6] stands for this setting: read-out: antibacterial / non-antibacterial (MIC for the BRD pathogens).

As to `CCCNC[C@]1(O)[C@H](C)O[C@@H](O[C@H]2[C@H](C)[C@@H](O[C@@H]3O[C@H](C)C[C@H](N(C)C(=O)Nc4ccccc4)[C@H]3O)[C@](C)(O)C[C@@H](C)CN[C@H](C)[C@@H](O)[C@](C)(O)[C@@H](CC)OC(=O)[C@@H]2C)C[C@@]1(C)OC` [Example H-91, 1-((2S,3R,4S,6R)-2-(((2R,3S,4R,5R,8R,10R,11R,12S,13S,14R)-2-ethyl-3,4,10-trihydroxy-13-(((2R,4R,5S,6S)-5-hydroxy-4-methoxy-4,6-dimethyl-5-((propylamino)methyl)tetrahydro-2H-pyran-2-yl)oxy)-3,5,8,10,12,14-hexamethyl-15-oxo-1-oxa-6-azacyclopentadecan-11-yl)oxy)-3-hydroxy-6-methyltetrahydro-2H-pyran-4-yl)-1-methyl-3-phenylurea], in series [1], the Ames mutagenicity test result is “negative; also recorded: non-mutagenic”. Also, the IC50 in the series with IL-6 is 181 µM. For the same molecule, the “Mouse Murine Percent Survival” value in the series with P. multocida 46572 (P. multocida challenge) was determined as 38%. Moreover, the “clinical efficacy in murine P. multocida infection” value in the series with P. multocida 46572 was “clinically efficacious”. Moreover, the Treatment success in series [2] (0.5 mg/kg (T02) subcutaneous Day 0, natural field study to Day 7, saline 43.0%) was 57.9%; in series [2] (2.5 mg/kg (T03) subcutaneous Day 0, natural field study to Day 7, saline 43.0%), 43.9%. Also, the “IL-36RA concentration relative to the baseline concentration after the elevation” value in the series on IL-36RA is −55%. Also, in the series on IL-36RA, the “increase in IL-36RA compared to baseline” value was “about 275%”. Also, the “Back Transform LS % Lung with Lesions” value in series [3] (0.5 mg/kg) was 8%; in series [3] (2.5 mg/kg), 9%. Besides, the “Range % Lung with Lesions” value was in the range of 0 to 39% in series [3] (0.5 mg/kg) and 0 to 58% in [3] (2.5 mg/kg). Besides, the figures for the MIC (in the series with P. multocida; in the series on H. somni (Histophilus somni); in [4] (setting [6])) were above 256 µg/mL, above 64 µg/mL and above 64 µg/mL, respectively. In addition, in the series with CD163, the “CD163 expression in treated cattle” value is reported as “suppressed; also recorded: reduction; also recorded: downregulated”. Also, the “in vitro activity vs. clinically relevant pathogenic strains for BRD (M. haemolytica and P. multocida)” value in series [4] was “lack of in vitro activity”.
Consider `CCCNC[C@]1(O)[C@H](C)O[C@@H](O[C@H]2[C@H](C)[C@@H](O[C@@H]3O[C@H](C)C[C@H](N(C)C(=O)N(C)c4ccccc4)[C@H]3O)[C@](C)(O)C[C@@H](C)CN[C@H](C)[C@@H](O)[C@](C)(O)[C@@H](CC)OC(=O)[C@@H]2C)C[C@@]1(C)OC` [Example H-11, 1-((2S,3R,4S,6R)-2-(((2R,3S,4R,5R,8R,10R,11R,12S,13S,14R)-2-ethyl-3,4,10-trihydroxy-13-(((2R,4R,5S,6S)-5-hydroxy-4-methoxy-4,6-dimethyl-5-((propylamino)methyl)tetrahydro-2H-pyran-2-yl)oxy)-3,5,8,10,12,14-hexamethyl-15-oxo-1-oxa-6-azacyclopentadecan-11-yl)oxy)-3-hydroxy-6-methyltetrahydro-2H-pyran-4-yl)-1,3-dimethyl-3-phenylurea], for which the Ames mutagenicity test entry in [1] is “non-mutagenic”. Further, in the series on IL-6 (4 independent studies with multiple blood donors, FIG. 4), the “expression of IL-6, LPS stimulated whole bovine blood” value was “dose dependent reduction”. Also, the IC50 in the series with IL-6 came to 22 µM. Besides, the “Mouse Murine Percent Survival” value with P. multocida 46572 (P. multocida challenge) is 36%. In the series with P. multocida 46572, the “clinical efficacy in murine P. multocida infection” value is “clinically efficacious”. Besides, the Treatment success in series [2] (0.03 mg/kg (T02) subcutaneous Day 0, natural field study to Day 7, saline 32.1%) was 58.3%; in [2] (0.1 mg/kg (T03) subcutaneous Day 0, natural field study to Day 7, saline 32.1%) it was 60.7%; in series [2] (0.3 mg/kg (T04) subcutaneous Day 0, natural field study to Day 7, saline 32.1%), 51.2%; in series [2] (1 mg/kg (T05) subcutaneous Day 0, natural field study to Day 7, saline 32.1%), 40.5%. Moreover, the “IL-36RA concentration relative to the baseline concentration after the elevation” value in the series on IL-36RA is recorded as −55%. For the same molecule, the “increase in IL-36RA compared to baseline” value with IL-36RA is “about 50%”. For the same molecule, the aqueous solubility entry in series [5] (acidic pH) is reported as “very soluble”; in [5] (as the pH approaches neutral conditions), “lower solubility”. Moreover, the results for the “Back Transform LS % Lung with Lesions” value in series [3] (0.5 mg/kg) and in series [3] (2.5 mg/kg) were 28% and 21%, respectively. Also, the “Range % Lung with Lesions” value in series [3] (0.5 mg/kg) is given as 0 to 68%; in series [3] (2.5 mg/kg) it was 2 to 70%. Further, the MIC (with P. multocida; against H. somni (Histophilus somni); in [4] (setting [6])) was above 64 µg/mL each time. The “CD163 expression in treated cattle” value in the series with CD163 was “reduced; also recorded: downregulated”. Further, the “in vitro activity vs. clinically relevant pathogenic strains for BRD (M. haemolytica and P. multocida)” value in series [4] is on record as “lack of in vitro activity”.
`CCCNC[C@]1(O)[C@H](C)O[C@@H](O[C@H]2[C@H](C)[C@@H](O[C@@H]3O[C@H](C)C[C@H](NC)[C@H]3O)[C@](C)(O)C[C@@H](C)CN[C@H](C)[C@@H](O)[C@](C)(O)[C@@H](CC)OC(=O)[C@@H]2C)C[C@@]1(C)OC` [Example M9, (2R,3S,4R,5R,8R,10R,11R,12S,13S,14R)-2-ethyl-3,4,10-trihydroxy-13-(((2R,4R,5S,6S)-5-hydroxy-4-methoxy-4,6-dimethyl-5-((propylamino)methyl)-tetrahydro-2H-pyran-2-yl)oxy)-11-(((2S,3R,4S,6R)-3-hydroxy-6-methyl-4-(methylamino)tetrahydro-2H-pyran-2-yl)oxy)-3,5,8,10,12,14-hexamethyl-1-oxa-6-azacyclopentadecan-15-one, reference compound]: the IC50 in the series with IL-6 is above 250 µM. Besides, the “clinical efficacy in murine P. multocida infection” value in the series with P. multocida 46572 is recorded as “clinically efficacious”. Besides, the Mouse survival in the series with P. multocida 46572 (positive control, 20 mg/kg, P. multocida challenge) was 90-100%. Also, the “Percent failure (treatment failure)” value came out at 19.3% in series [2] (5 mg/kg (T02)) and 8.8% in series [2] (10 mg/kg (T03)). In series [3] (10 mg/kg, separate study, saline control 31%), this molecule registered a lung lesions of 20%. For the same molecule, the results for the MIC50 against P. multocida and against H. somni (Histophilus somni) were 16 µg/mL (≈ 20.2 µM) and 32 µg/mL (≈ 40.4 µM), respectively. The MIC90 is above 64 µg/mL in the series with P. multocida and 32 µg/mL (≈ 40.4 µM) in the series with H. somni (Histophilus somni). Besides, the MIC is 16 µg/mL (≈ 20.2 µM) in the series on P. multocida (ATCC43137, read-out: Comparative MIC's, P. multocida ATCC 43137); at most 64 µg/mL in series [4] (read-out: MIC for the BRD bacterial strains tested / target pathogens); below 64 µg/mL in series [4] (setting [6]). Further, in the series with H. somni (H. somni (25) lung isolates at necropsy, natural BRD study), the “MIC Range” value was in the range of 8 to 64 µg/mL. Besides, in the series with CD163, the “CD163 expression in treated cattle” value was “suppressed; also recorded: mitigates; also recorded: downregulated”.
